From patent publication US20210047324A1 (Aptinyx Inc., priority 2018, published 2021)
“And” between values parts separate entries of the source, which are not always exact repeats. Equal entries are not always repeated. Where two headings read alike, the source gives them in different places.

Columns and labels:
NMDAR2A = target: T1, NMDAR2A (Homo sapiens, UniProt Q12879); assay: NMDAR agonist assay, [3H]MK-801 binding, NMDAR2A expressing HEK cell membranes; type: biochemical; design: key to NMDAR2A B: log EC50: 0=−; ≥1×10^−9 M (e.g., −8)=+; <1×10^−9 M (e.g., −10)=++; conditions: 50 μM glutamate; for EC50: read-out: NMDAR2A B: log EC50 (converted); for Emax: 0.25 h, read-out: NMDAR2A A: % maximal [3H]MK-801 binding relative to 1 mM glycine; for NMDAR2A A: % maximal [3H]MK-801 binding relative to 1 mM glycine / Emax: relative to 1 mM glycine
T1 construct: expressed in transfected cells; host or cells: HEK cells (membrane extract)
Experimental: (§1) Assays were conducted as described by Moskal et al., “GLYX-13: a monoclonal antibody-derived peptide that acts as an N-methyl-D-aspartate receptor modulator,” Neuropharmacology, 49, 1077-87, 2005. These studies were designed to determine if the test compounds act to facilitate NMDAR activation in NMDAR2A, NMDAR2B, NMDAR2C or NMDAR2D expressing HEK cell membranes as measured by increases in [^3H]MK-801 binding.
(§2) In the assay, 300 μg of NMDAR expressing HEK cell membrane extract protein was preincubated for 15 minutes at […] in the presence of saturating concentrations of glutamate (50 μM) and varying concentrations of test compound (1×10^−15M-1×10^−7M), or 1 mM glycine. Following the addition of 0.3 μCi of [3H]MK-801 (22.5 Ci/mmol), reactions were again incubated for 15 minutes at 25° C. (nonequilibrium conditions). Bound and free [3H]MK-801 were separated via rapid filtration using a Brandel apparatus.
(§3) In analyzing the data, the DPM (disintegrations per minute) of [3H]MK-801 remaining on the filter were measured for each concentration of test compound or for 1 mM glycine. The DPM values for each concentration of a ligand (N=2) were averaged. The baseline value was determined from the best fit curve of the DPM values modeled using the GraphPad program and the log(agonist) vs. response (three parameters) algorithm was then subtracted from all points in the dataset. The % maximal [^3H]MK-801 binding was then calculated relative to that of 1 mM glycine: all baseline subtracted DPM values were divided by the average value for 1 mM glycine. The EC50 and % maximal activity were then obtained from the best fit curve of the % maximal [3H]MK-801 binding data modelled using the GraphPad program and the log(agonist) vs. response (three parameters) algorithm.
(§4) The tables below summarize the results for the wild type […] NMDAR2A, NMDAR2B, NMDAR2C, and NMDAR2D, and whether the compound is not an agonist (−), is an agonist (+), or is a strong agonist (++), where column A is based on the % maximal [3H]MK-801 binding relative to 1 mM glycine (−=0; <100%=+; and >100%=++); and column B is based on log EC50 values (0=−; ≥1×10^−9 M (e.g., −8)=+; and <1×10^−9 M (e.g., −10)=++).

NMDAR2B = target: T2, NMDAR2B (Homo sapiens, UniProt Q13224); assay: NMDAR agonist assay, [3H]MK-801 binding, NMDAR2B expressing HEK cell membranes; type: biochemical; conditions: 50 μM glutamate; for EC50: read-out: NMDAR2B B: log EC50 (converted); for NMDAR2B A: % maximal [3H]MK-801 binding relative to 1 mM glycine / Emax: relative to 1 mM glycine; for Emax: read-out: NMDAR2B A: % maximal [3H]MK-801 binding relative to 1 mM glycine
T2 construct: expressed in transfected cells; host or cells: HEK cells (membrane extract)
Experimental: as §1, §2, §3, §4

[1] = Microsomal stability (Human); type: in vitro ADME; conditions: after 60 minutes
Experimental: (§5) Microsomal stability of disclosed compounds was investigated. The following table indicates the percent of compound remaining after 60 minutes.

[2] = Microsomal stability (Rat); type: in vitro ADME; conditions: after 60 minutes
Experimental: as §5

Plasma stability (Human) = type: in vitro ADME; conditions: after 60 minutes
Experimental: (§6) Plasma stability of disclosed compounds was investigated. The following table indicates the percent of compound remaining after 60 minutes.

Plasma stability (Rat) = type: in vitro ADME; conditions: after 60 minutes
Experimental: as §6

[3] = IV pharmacokinetics in Sprague Dawley rats; type: in vivo; conditions: rat, 2 mg/kg, normal saline
Experimental: Sprague Dawley rats were dosed intravenously using a normal saline formulation containing 2 mg/kg of the compounds identified in the below table. The table below summarizes the results of the IV pharmacokinetics.

[4] = Oral pharmacokinetics in Sprague Dawley rats (plasma, brain, CSF); type: in vivo; conditions: rat
Experimental: In another experiment, Sprague Dawley rats were dosed per os (oral gavage) using a normal saline formulation containing 10 mg/kg of the compounds identified in the table below. Plasma, brain, and CSF samples were analyzed at various time points over a 24 hour period. The table below summarizes the results of the oral pharmacokinetics, where the first three values (Tmax, Cmax and AUClast) are plasma values.

T2 sequence (Q13224 27-1484, species assumed, other chains not shown): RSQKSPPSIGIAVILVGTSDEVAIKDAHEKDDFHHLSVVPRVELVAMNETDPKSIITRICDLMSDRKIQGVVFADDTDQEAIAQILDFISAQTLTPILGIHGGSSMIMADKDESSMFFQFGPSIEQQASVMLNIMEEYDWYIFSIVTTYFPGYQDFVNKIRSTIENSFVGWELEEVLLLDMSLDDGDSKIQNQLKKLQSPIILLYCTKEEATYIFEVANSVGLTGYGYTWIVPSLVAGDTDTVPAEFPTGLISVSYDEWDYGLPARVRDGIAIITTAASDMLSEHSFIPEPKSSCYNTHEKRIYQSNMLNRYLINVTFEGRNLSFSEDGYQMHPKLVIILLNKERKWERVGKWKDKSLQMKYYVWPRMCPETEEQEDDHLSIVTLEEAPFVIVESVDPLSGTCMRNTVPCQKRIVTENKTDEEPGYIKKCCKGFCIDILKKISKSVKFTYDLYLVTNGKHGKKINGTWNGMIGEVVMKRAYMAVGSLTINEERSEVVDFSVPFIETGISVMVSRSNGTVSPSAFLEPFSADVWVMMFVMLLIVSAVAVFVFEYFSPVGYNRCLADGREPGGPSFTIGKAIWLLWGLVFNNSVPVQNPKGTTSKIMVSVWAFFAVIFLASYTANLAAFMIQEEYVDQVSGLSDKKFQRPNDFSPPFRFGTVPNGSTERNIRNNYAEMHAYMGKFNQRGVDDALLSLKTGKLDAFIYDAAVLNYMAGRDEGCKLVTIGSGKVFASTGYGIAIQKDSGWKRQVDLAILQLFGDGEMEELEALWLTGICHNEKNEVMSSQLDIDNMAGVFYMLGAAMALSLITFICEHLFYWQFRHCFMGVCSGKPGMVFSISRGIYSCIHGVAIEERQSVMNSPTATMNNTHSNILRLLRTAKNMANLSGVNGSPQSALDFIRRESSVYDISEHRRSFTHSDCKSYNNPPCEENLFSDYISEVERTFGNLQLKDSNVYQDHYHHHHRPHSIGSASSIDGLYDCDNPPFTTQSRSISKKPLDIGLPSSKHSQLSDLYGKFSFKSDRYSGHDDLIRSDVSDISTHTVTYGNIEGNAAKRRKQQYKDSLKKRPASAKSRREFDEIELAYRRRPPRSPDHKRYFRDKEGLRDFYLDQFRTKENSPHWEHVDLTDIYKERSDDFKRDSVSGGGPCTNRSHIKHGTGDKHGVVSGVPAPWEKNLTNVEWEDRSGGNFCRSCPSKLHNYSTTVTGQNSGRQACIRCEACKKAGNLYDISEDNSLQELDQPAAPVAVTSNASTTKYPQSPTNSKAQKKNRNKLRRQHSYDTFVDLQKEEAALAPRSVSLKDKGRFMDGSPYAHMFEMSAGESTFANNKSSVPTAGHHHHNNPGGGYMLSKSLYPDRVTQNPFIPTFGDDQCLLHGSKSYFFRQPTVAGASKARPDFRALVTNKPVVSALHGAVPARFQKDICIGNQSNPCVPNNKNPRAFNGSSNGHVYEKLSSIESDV
T1 sequence (Q12879 23-1464, species assumed, other chains not shown): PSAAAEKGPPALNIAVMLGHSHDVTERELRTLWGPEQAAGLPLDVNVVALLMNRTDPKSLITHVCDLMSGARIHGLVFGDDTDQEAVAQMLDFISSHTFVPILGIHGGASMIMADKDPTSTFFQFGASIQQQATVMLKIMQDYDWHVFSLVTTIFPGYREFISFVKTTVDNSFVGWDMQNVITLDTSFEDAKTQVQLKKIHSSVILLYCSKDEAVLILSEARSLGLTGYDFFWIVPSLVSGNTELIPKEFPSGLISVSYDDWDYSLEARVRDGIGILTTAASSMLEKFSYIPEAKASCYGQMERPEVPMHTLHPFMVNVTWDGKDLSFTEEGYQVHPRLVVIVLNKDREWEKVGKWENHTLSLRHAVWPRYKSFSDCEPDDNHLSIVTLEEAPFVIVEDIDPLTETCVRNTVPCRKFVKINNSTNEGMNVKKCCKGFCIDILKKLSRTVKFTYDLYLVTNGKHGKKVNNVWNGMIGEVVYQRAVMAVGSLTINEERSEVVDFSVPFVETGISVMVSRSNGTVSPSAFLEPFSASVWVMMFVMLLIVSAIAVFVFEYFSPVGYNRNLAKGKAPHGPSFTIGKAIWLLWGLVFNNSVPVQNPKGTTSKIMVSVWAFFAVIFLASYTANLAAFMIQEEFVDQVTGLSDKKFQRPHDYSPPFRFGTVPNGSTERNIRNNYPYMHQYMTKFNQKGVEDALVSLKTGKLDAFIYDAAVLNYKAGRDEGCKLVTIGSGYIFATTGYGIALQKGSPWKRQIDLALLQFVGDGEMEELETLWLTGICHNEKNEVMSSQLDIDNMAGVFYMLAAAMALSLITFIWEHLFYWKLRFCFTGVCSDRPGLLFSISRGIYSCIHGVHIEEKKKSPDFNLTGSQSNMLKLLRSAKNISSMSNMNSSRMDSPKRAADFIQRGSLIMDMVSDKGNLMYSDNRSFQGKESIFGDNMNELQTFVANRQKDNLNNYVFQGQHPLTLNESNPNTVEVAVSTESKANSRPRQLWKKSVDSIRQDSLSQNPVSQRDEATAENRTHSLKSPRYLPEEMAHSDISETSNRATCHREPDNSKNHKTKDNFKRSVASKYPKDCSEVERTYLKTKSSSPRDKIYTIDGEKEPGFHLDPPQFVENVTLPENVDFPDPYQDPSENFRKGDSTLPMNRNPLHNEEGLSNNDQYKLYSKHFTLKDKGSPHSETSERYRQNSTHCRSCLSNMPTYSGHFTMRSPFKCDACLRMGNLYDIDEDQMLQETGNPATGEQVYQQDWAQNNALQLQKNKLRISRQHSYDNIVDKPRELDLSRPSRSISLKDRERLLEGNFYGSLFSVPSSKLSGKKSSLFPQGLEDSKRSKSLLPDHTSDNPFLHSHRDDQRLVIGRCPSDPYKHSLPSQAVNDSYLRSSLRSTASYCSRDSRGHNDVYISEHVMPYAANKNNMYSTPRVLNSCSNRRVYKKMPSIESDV

Row | SMILES | NMDAR2A A: % maximal [3H]MK-801 binding relative to 1 mM glycine (NMDAR2A) | EC50 (NMDAR2B) [nM] | NMDAR2B A: % maximal [3H]MK-801 binding relative to 1 mM glycine (NMDAR2B) | Microsomal (Human): percent of compound remaining [1] [%] | Microsomal (Rat): percent of compound remaining [2] [%] | Plasma (Human): percent of compound remaining (Plasma stability (Human)) | Plasma (Rat): percent of compound remaining (Plasma stability (Rat)) [%] | EC50 (NMDAR2A) [nM] | Emax (NMDAR2A) [%] | Emax (NMDAR2B) [%] | also measured
1 | O=C1N(Cc2ccc(F)cc2)CC=CCC12CCCN2 (single isomer, unassigned) [GK-2, 7-(4-fluorobenzyl)-1,7-diazaspiro[4.6]undec-9-en-6-one] | − (−=0) | < 1 | + (<100%=+) | 94 | 46 | 92% | 97 |  |  |  | NMDAR2A B: log EC50 (NMDAR2A): −
2 | O=C1N(Cc2ccccc2)CC=CCC12CCCN2 (single isomer, unassigned) [GS-1, 7-benzyl-1,7-diazaspiro[4.6]undec-9-en-6-one] |  | < 1 |  | 99 | 0 | 97% | 95 | < 1 | < 100 | < 100 | 
3 | O=C1NCCCC12CCCCN2 (single isomer, unassigned) [AY, 1,8-diazaspiro[5.5]undecan-7-one] | + (<100%=+) | < 1 | + (<100%=+) | 97 | 114 | 104% | 107 | < 1 |  |  | AUClast [3]: 1658.09 ng·h/mL; Cl [3]: 20.15 mL/min/kg; Cmax [3]: 1552.63 ng/mL; T1/2 [3]: 9.65 h; Vss [3]: 3.88 L/kg; % F ([4]; per os 10 mg/kg): 79%; CSF Cmax ([4]; per os, 10 mg/kg): 701.8 ng/mL; Brain Cmax ([4]; per os, 10 mg/kg): 799.5 ng/mL; AUC(0-last) ([4]; per os, 10 mg/kg, plasma): 6528.55 ng·h/mL; Cmax ([4]; per os, 10 mg/kg, plasma): 3038.07 ng/mL; Tmax ([4]; per os, 10 mg/kg, plasma): 1 h
4 | O=C1NCC=CCC12CCCN2Cc1ccccc1 (single isomer, unassigned) [GP-2, 1-benzyl-1,7-diazaspiro[4.6]undec-9-en-6-one] | ++ (>100%=++) | < 1 | + (<100%=+) | 89 | 7 | 96% | 85 | < 1 |  |  | 
5 | O=C1NCC=CCC12CCCN2Cc1ccccc1 (single isomer, unassigned) [GP-1, 1-benzyl-1,7-diazaspiro[4.6]undec-9-en-6-one] |  | < 1 |  | 80 | 2 | 98% | 96 | < 1 | < 100 | > 100 | 
6 | O=C1N(Cc2ccccc2)CC=CCC12CCCN2 (single isomer, unassigned) [GS-2, 7-benzyl-1,7-diazaspiro[4.6]undec-9-en-6-one] | + (<100%=+) | < 1 | + (<100%=+) | 90 | 0 | 98% | 99 | ≥ 1 |  |  | 

Now from value to compound, other results behind:

Row | NMDAR2A A: % maximal [3H]MK-801 binding relative to 1 mM glycine (NMDAR2A) | EC50 (NMDAR2B) [nM] | NMDAR2B A: % maximal [3H]MK-801 binding relative to 1 mM glycine (NMDAR2B) | Microsomal (Human): percent of compound remaining [1] [%] | Microsomal (Rat): percent of compound remaining [2] [%] | Plasma (Human): percent of compound remaining (Plasma stability (Human)) | Plasma (Rat): percent of compound remaining (Plasma stability (Rat)) [%] | EC50 (NMDAR2A) [nM] | Emax (NMDAR2A) [%] | Emax (NMDAR2B) [%] | SMILES | also measured
7 | + (<100%=+) | < 1 | + (<100%=+) | 94 | 102 | 96% | 97 | < 1 |  |  | NC(=O)CN1CCCC12CC=CCNC2=O (single isomer, unassigned) [GQ-2, 2-(6-oxo-1,7-diazaspiro[4.6]undec-9-en-1-yl)acetamide] | AUC(0-t) ([3]; Sprague-Dawley, in vivo, iv): 1290 ng·h/mL; clearance ([3]; Sprague-Dawley, in vivo, iv): 25.7 mL/min/kg; half-life ([3]; Sprague-Dawley, in vivo, iv): 1.77 h; Cmax ([3]; Sprague-Dawley, in vivo, iv, read-out: Cmax): 2310 ng/mL; Vd ([3]; Sprague-Dawley, in vivo, iv, read-out: Vss): 1.11 L/kg; Tmax ([4]; Sprague-Dawley, po, per os, 10 mg/kg, plasma, read-out: Tmax): 0.25 h; AUC(0-t) ([4]; Sprague-Dawley, plasma, po, 10 mg/kg, per os): 5480 ng·h/mL; bioavailability ([4]; Sprague-Dawley, plasma, po, 10 mg/kg, per os 10 mg/kg): 85%; Cmax ([4]; Sprague-Dawley, plasma, po, 10 mg/kg, per os, 10 mg/kg, plasma, read-out: Cmax): 5390 ng/mL; CSF Cmax ([4]; per os, 10 mg/kg): 1400.31 ng/mL; Brain Cmax ([4]; per os, 10 mg/kg): 492.96 ng/mL
8 |  | < 1 |  | 83 | 11 | 105% | 100 | < 1 | < 100 | < 100 | O=C1NCC=CCC12CCCN2Cc1ccc(F)cc1 (single isomer, unassigned) [GJ-1, 1-(4-fluorobenzyl)-1,7-diazaspiro[4.6]undec-9-en-6-one] | 
9 |  | < 1 |  | 104 | 100 | 103% and 96% | 102 | < 1 | < 100 | < 100 | CC(C)C(=O)N1CCCC12CC=CCNC2=O (single isomer, unassigned) [GH-1, 1-isobutyryl-1,7-diazaspiro[4.6]undec-9-en-6-one] | 
10 |  | ≥ 1 |  | 88 | 87 | 98% | 98 | < 1 | < 100 | > 100 | NC(=O)CN1CCCC12CC=CCNC2=O (single isomer, unassigned) [GQ-1, 2-(6-oxo-1,7-diazaspiro[4.6]undec-9-en-1-yl)acetamide] | 
11 | + (<100%=+) | < 1 | + (<100%=+) | 95 | 3 | 95% | 99 | < 1 |  |  | O=C1NCC=CCC12CCCN2Cc1ccc(F)cc1 (single isomer, unassigned) [GJ-2, 1-(4-fluorobenzyl)-1,7-diazaspiro[4.6]undec-9-en-6-one] | 
12 |  | < 1 |  | 96 | 69 | 96% | 102 | < 1 | < 100 | < 100 | CC(C)CN1CCCC12CC=CCNC2=O (single isomer, unassigned) [GI-1, 1-isobutyl-1,7-diazaspiro[4.6]undec-9-en-6-one] | 
